Test results reported in BindingDB's records for doi:10.1021/acsmedchemlett.0c00586 (University of Iowa, 2021).

Assay: Binding affinity to BTN3A1 in human PBMC-derived Vgamma9/Vdelta2 T cells assessed as induction of Vgamma9Vdelta2 T cells proliferation incubated for 3 days by gamma delta TCR/PE-CD3+ antibody staining based FACS analysis
C/C(C=O)=C\CCP(=O)(OCOC(=O)C(C)(C)C)Oc1ccc2ccccc2c1 (stereo not given) gave an EC50 of 0.0046 µM. Compound C/C(C=O)=C\CCP(=O)(NCC(=O)OC(C)C)Oc1ccccc1 (stereo not given) has an EC50 of 0.049 µM. Work on C/C(=C\CCP(=O)(OCOC(=O)C(C)(C)C)Oc1ccc2ccc(=O)oc2c1)CO (stereo not given) yielded an EC50 of 0.008 µM. With CC(C)=CCCP(=O)(O)O the EC50 was greater than 100 µM. In the case of CCOC(=O)CNP(=O)(CC/C=C(C)/C=N/O)Oc1ccccc1 (stereo not given), the EC50 is reported as 0.79 µM. Work on CCOC(=O)CNP(=O)(CC/C=C(\C)C=O)Oc1ccccc1 (stereo not given) yielded an EC50 of 0.02 µM. Compound C/C(C=O)=C\CCP(=O)(OCOC(=O)C(C)(C)C)Oc1ccc2ccc(=O)oc2c1 (stereo not given) has an EC50 of 0.012 µM. COC(=O)CNP(=O)(CC/C=C(\C)C=O)Oc1ccccc1 (stereo not given) gave an EC50 of 0.047 µM. With C/C(C=O)=C\CCP(=O)(OCOC(=O)C(C)(C)C)OCOC(=O)C(C)(C)C the EC50 was 0.047 µM. CCOC(=O)CNP(=O)(CCC=C(C)C)Oc1cccc2ccccc12 (stereo not given) gave an EC50 greater than 100 µM.
